In ChEMBL document CHEMBL1146785, “Synthesis and activity of phosphinic tripeptide inhibitors of cathepsin C” (Bioorg Med Chem Lett, 2004):

Molecular target: T1, Dipeptidyl peptidase 1 (Mus musculus, UniProt P97821)
T1 sequence (P97821 whole entry): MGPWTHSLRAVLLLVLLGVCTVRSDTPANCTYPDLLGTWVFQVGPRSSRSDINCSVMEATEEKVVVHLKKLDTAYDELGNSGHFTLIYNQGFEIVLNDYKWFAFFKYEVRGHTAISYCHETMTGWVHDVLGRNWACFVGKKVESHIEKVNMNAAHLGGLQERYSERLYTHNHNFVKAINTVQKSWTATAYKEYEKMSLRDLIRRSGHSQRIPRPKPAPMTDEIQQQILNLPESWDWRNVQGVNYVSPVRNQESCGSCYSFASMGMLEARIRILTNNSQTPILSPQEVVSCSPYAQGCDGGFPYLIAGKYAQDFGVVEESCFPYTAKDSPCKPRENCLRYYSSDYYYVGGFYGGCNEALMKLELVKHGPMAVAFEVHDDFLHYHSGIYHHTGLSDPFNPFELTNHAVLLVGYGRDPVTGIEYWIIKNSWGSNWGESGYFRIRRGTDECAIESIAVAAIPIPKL
Assay: Compound was evaluated to inhibit cathepsin C (Dipeptidyl peptidase I) in non competitive binding assay

Q: For `COC(=O)CCP(=O)(O)C(CC(C)C)NC(=O)CN` (stereo not drawn), which Ki is on record?
A: The Ki was 40 µM.

Q: For `CC(C)CC(NC(=O)CN)P(=O)(O)CCC(=O)O` (stereo not drawn), which Ki is on record?
A: Its Ki is 39 µM.

Q: Which Ki does the source give for `NCC(=O)NC(Cc1ccccc1)P(=O)(O)CCC(=O)O` (stereo not drawn) here?
A: The Ki was 429 µM.

Q: Which Ki does the source give for `COC(=O)CCP(=O)(O)C(CCc1ccccc1)NC(=O)CN` (stereo not drawn) here?
A: The Ki was 312 µM.

Q: With `COC(=O)CCP(=O)(O)C(Cc1ccccc1)NC(=O)CN` (stereo not drawn) as the compound, how does the Ki read?
A: The Ki was 514 µM.

Q: `COC(=O)CCP(=O)(O)C(NC(=O)CN)c1ccccc1` (stereo not drawn) was tested. Which Ki did it give?
A: The Ki was 188 µM.

Q: For `NCC(=O)NC(CCc1ccccc1)P(=O)(O)CCC(=O)O` (stereo not drawn), which Ki is on record?
A: Its Ki is 187 µM.

Q: How did the Ki turn out when `NCC(=O)NC(c1ccccc1)P(=O)(O)CCC(=O)O` (stereo not drawn) was run?
A: Its Ki is 176 µM.
